± gives the expanded uncertainty stated by the source.
Columns and labels:
[1] = excess molar enthalpy (molar enthalpy of mixing); xn = mol fraction of the nth substance listed; conditions: 298.15 K, 101 kPa, Liquid, isothermal titration calorimeter
[2] = xn = mol fraction of the nth substance listed; conditions: 101.33 kPa, Liquid, Vibrating tube method

c1cc[nH]c1 [pyrrole] + c1ccccc1
[1]
Conditions | excess molar enthalpy [kcal/mol]
x1 = 0.015 | 0.017 ± 0.000884
x1 = 0.03 | 0.0293 ± 0.000932
x1 = 0.0448 | 0.0406 ± 0.000956
x1 = 0.0597 | 0.0508 ± 0.00098
x1 = 0.0747 | 0.0604 ± 0.00105
x1 = 0.0896 | 0.0691 ± 0.0011
x1 = 0.1045 | 0.0773 ± 0.00117
x1 = 0.1193 | 0.0847 ± 0.00124
x1 = 0.1343 | 0.0917 ± 0.00131
x1 = 0.1493 | 0.0981 ± 0.00136
x1 = 0.1642 | 0.104 ± 0.00143
x1 = 0.1792 | 0.109 ± 0.00148
x1 = 0.1942 | 0.115 ± 0.00153
x1 = 0.2092 | 0.119 ± 0.0016
x1 = 0.2242 | 0.123 ± 0.00165
x1 = 0.2392 | 0.127 ± 0.00167
x1 = 0.2542 | 0.131 ± 0.00172
x1 = 0.2691 | 0.134 ± 0.00174
x1 = 0.284 | 0.136 ± 0.00179
x1 = 0.299 | 0.139 ± 0.00182
x1 = 0.314 | 0.141 ± 0.00184
x1 = 0.329 | 0.143 ± 0.00186
x1 = 0.344 | 0.144 ± 0.00186
x1 = 0.359 | 0.145 ± 0.00189
x1 = 0.374 | 0.146 ± 0.00189
x1 = 0.389 | 0.147 ± 0.00191
x1 = 0.404 | 0.148 ± 0.00191
x1 = 0.419 | 0.148 ± 0.00191
x1 = 0.434 | 0.148 ± 0.00191
x1 = 0.449 | 0.148 ± 0.00191
x1 = 0.464 | 0.147 ± 0.00191
x1 = 0.479 | 0.146 ± 0.00189
x1 = 0.494 | 0.146 ± 0.00189
x1 = 0.5091 | 0.144 ± 0.00186
x1 = 0.5241 | 0.143 ± 0.00186
x1 = 0.5391 | 0.142 ± 0.00184
x1 = 0.5541 | 0.14 ± 0.00182
x1 = 0.5613 | 0.14 ± 0.00182
x1 = 0.5683 | 0.139 ± 0.00182
x1 = 0.5692 | 0.138 ± 0.00179
x1 = 0.583 | 0.137 ± 0.00227
x1 = 0.5842 | 0.136 ± 0.00225
x1 = 0.5977 | 0.135 ± 0.00222
x1 = 0.5993 | 0.133 ± 0.0022
x1 = 0.6122 | 0.133 ± 0.00215
x1 = 0.6143 | 0.131 ± 0.00213
x1 = 0.6267 | 0.131 ± 0.00172
x1 = 0.6411 | 0.129 ± 0.0017
x1 = 0.6554 | 0.126 ± 0.00165
x1 = 0.6696 | 0.124 ± 0.00163
x1 = 0.6838 | 0.121 ± 0.0016
x1 = 0.6978 | 0.118 ± 0.00155
x1 = 0.7118 | 0.114 ± 0.00153
x1 = 0.7257 | 0.111 ± 0.00148
x1 = 0.7395 | 0.107 ± 0.00143
x1 = 0.7533 | 0.104 ± 0.00141
x1 = 0.7669 | 0.0996 ± 0.00136
x1 = 0.7805 | 0.0956 ± 0.00131
x1 = 0.794 | 0.0913 ± 0.00127
x1 = 0.8074 | 0.0868 ± 0.00122
x1 = 0.8208 | 0.0822 ± 0.00117
x1 = 0.8341 | 0.0774 ± 0.00112
x1 = 0.8473 | 0.0726 ± 0.00108
x1 = 0.8604 | 0.0674 ± 0.001
x1 = 0.8735 | 0.0622 ± 0.000956
x1 = 0.8865 | 0.0567 ± 0.000908
x1 = 0.8993 | 0.0511 ± 0.00086
x1 = 0.9121 | 0.0452 ± 0.000813
x1 = 0.9249 | 0.0392 ± 0.000765
x1 = 0.9377 | 0.0331 ± 0.000717
x1 = 0.9502 | 0.0269 ± 0.000669
x1 = 0.9628 | 0.0203 ± 0.000645
x1 = 0.9753 | 0.0138 ± 0.000621
x1 = 0.9877 | 0.00698 ± 0.000598

c1cc[nH]c1 [pyrrole] + c1ccncc1
mass density [kg/m3], [2]
Conditions | 298.15 K | 308.15 K | 318.15 K | 328.15 K | 338.15 K
x1 = 0.0735 | 977.37 ± 0.11 | 967.47 ± 0.11 | 957.53 ± 0.11 | 947.53 ± 0.11 | 937.46 ± 0.11
x1 = 0.1006 | 977.04 ± 0.11 | 967.22 ± 0.11 | 957.34 ± 0.11 | 947.41 ± 0.11 | 937.4 ± 0.11
x1 = 0.1428 | 976.57 ± 0.11 | 966.85 ± 0.11 | 957.07 ± 0.11 | 947.23 ± 0.11 | 937.32 ± 0.11
x1 = 0.1978 | 975.9 ± 0.11 | 966.3 ± 0.11 | 956.66 ± 0.11 | 946.95 ± 0.11 | 937.15 ± 0.11
x1 = 0.2273 | 975.56 ± 0.11 | 966.03 ± 0.11 | 956.45 ± 0.11 | 946.8 ± 0.11 | 937.07 ± 0.12
x1 = 0.3021 | 974.44 ± 0.11 | 965.06 ± 0.11 | 955.63 ± 0.11 | 946.12 ± 0.11 | 936.52 ± 0.12
x1 = 0.3704 | 973.5 ± 0.11 | 964.22 ± 0.11 | 954.89 ± 0.11 | 945.49 ± 0.11 | 936.01 ± 0.12
x1 = 0.4409 | 972.25 ± 0.11 | 963.08 ± 0.11 | 953.85 ± 0.11 | 944.54 ± 0.11 | 935.14 ± 0.12
x1 = 0.5426 | 970.64 ± 0.11 | 961.59 ± 0.11 | 952.47 ± 0.11 | 943.27 ± 0.11 | 933.99 ± 0.12
x1 = 0.6168 | 969.44 ± 0.11 | 960.46 ± 0.11 | 951.41 ± 0.11 | 942.28 ± 0.11 | 933.06 ± 0.12
x1 = 0.682 | 968.6 ± 0.11 | 959.68 ± 0.11 | 950.68 ± 0.11 | 941.6 ± 0.12 | 932.43 ± 0.12
x1 = 0.7554 | 967.69 ± 0.11 | 958.82 ± 0.11 | 949.87 ± 0.11 | 940.85 ± 0.12 | 931.72 ± 0.12
x1 = 0.8374 | 966.69 ± 0.11 | 957.88 ± 0.11 | 948.98 ± 0.11 | 939.99 ± 0.12 | 930.91 ± 0.12
x1 = 0.9063 | 966.15 ± 0.11 | 957.38 ± 0.11 | 948.53 ± 0.11 | 939.58 ± 0.12 | 930.54 ± 0.12
x1 = 0.9591 | 965.77 ± 0.11 | 957.04 ± 0.11 | 948.21 ± 0.11 | 939.3 ± 0.12 | 930.28 ± 0.12
x1 = 1 | 965.54 ± 0.11 | 956.83 ± 0.11 | 948.03 ± 0.11 | 939.14 ± 0.12 | 930.13 ± 0.12

[1]
Conditions | excess molar enthalpy [kcal/mol]
x1 = 0.03 | -0.0466 ± 0.0021
x1 = 0.06 | -0.106 ± 0.00239
x1 = 0.0898 | -0.164 ± 0.00287
x1 = 0.1197 | -0.22 ± 0.00335
x1 = 0.1497 | -0.274 ± 0.00382
x1 = 0.1797 | -0.326 ± 0.0043
x1 = 0.2096 | -0.375 ± 0.00502
x1 = 0.2395 | -0.422 ± 0.0055
x1 = 0.2695 | -0.466 ± 0.00598
x1 = 0.2994 | -0.505 ± 0.00645
x1 = 0.3295 | -0.541 ± 0.00693
x1 = 0.3594 | -0.572 ± 0.00717
x1 = 0.3895 | -0.597 ± 0.00741
x1 = 0.4195 | -0.616 ± 0.00765
x1 = 0.4495 | -0.629 ± 0.00789
x1 = 0.4795 | -0.634 ± 0.00789
x1 = 0.4832 | -0.637 ± 0.00789
x1 = 0.4902 | -0.637 ± 0.00789
x1 = 0.5095 | -0.633 ± 0.00789
x1 = 0.5202 | -0.633 ± 0.00789
x1 = 0.5396 | -0.625 ± 0.00789
x1 = 0.5502 | -0.622 ± 0.00765
x1 = 0.5696 | -0.61 ± 0.00765
x1 = 0.5802 | -0.604 ± 0.00765
x1 = 0.5906 | -0.595 ± 0.00741
x1 = 0.6102 | -0.58 ± 0.00717
x1 = 0.6402 | -0.551 ± 0.00693
x1 = 0.6702 | -0.517 ± 0.00645
x1 = 0.7002 | -0.479 ± 0.00621
x1 = 0.7302 | -0.437 ± 0.00574
x1 = 0.7602 | -0.393 ± 0.00502
x1 = 0.7901 | -0.347 ± 0.00454
x1 = 0.8201 | -0.298 ± 0.00406
x1 = 0.8501 | -0.249 ± 0.00359
x1 = 0.8801 | -0.198 ± 0.00311
x1 = 0.9101 | -0.147 ± 0.00263
x1 = 0.9401 | -0.0953 ± 0.00215
x1 = 0.9701 | -0.0432 ± 0.00184
